# According to patent US7524487B2, “Compositions and methods for modulating interleukin-10” (University of Maryland, priority 2005, dated 2009):
# Key:
# [1] = tested on: Sp1; assay: EMSA of Sp1 binding to the IL-10 promoter motif, nuclear extracts of BMMφ; assay type: cell-based, mice; conditions: BMMφ stimulated with LPS 10 ng/ml or LPS+E-IgG for 30 min
# Experimental: A. Cells were stimulated with LPS (10 ng/ml) or LPS+E-IgG for 30 min and nuclear extracts were analyzed by EMSA using Sp1 (A) or STAT3 (B) specific probes. C. RAW264.7 cells were stimulated with medium (open bar), E-IgG (dotted bar), LPS (solid bar) or LPS+E-IgG (striped bar) and cytokines measured by ELISA after 6 h. Data represents the mean of triplicate samples±SD. D. RAW264.7 cells were transfected with pRL-IL10-luciferase reporter plasmid (5 ug/ml) and 24 h later stimulated with medium (con), 10 ng/ml LPS (solid bar) or E-IgG+LPS (striped bar) for 4 h. Cells were then lysed and luciferase activity measured. This figure is representative of 3 experiments.
# Electrophoretic mobility shift assay (EMSA). Nuclear extracts were prepared from 2×10^7 Mφ using the Nuclear Extraction kit (Panomics, Redwood City, Calif.) following the manufactures protocol. EMSAs were carried out using the EMSA “Gel-Shift” kit (Panomics, Redwood City, Calif.). Briefly, 5 μg of nuclear extract were incubated with biotin-Sp1 or STAT3 probe±unlabelled probe for 30 min at 20° C., and then run on a 6% polyacrylamide gel. Oligo/protein complexes were transferred to Biodyne B membrane (Pall, Ann Arbor, Mich.). Following transfer, membranes were incubated with streptavidin-HRP and protein visualized by chemiluminescence.
# [2] = tested on: IL-10 promoter; assay: DNase I accessibility of the IL-10 promoter (nucleosome −2) by QRT-PCR; assay type: cell-based, mice; conditions: BMMφ pre-treated with PD98059 15 μM for 1 hour, IC plus LPS 10 ng/mL for 60 min
# Experimental: FIG. 23 are graphs showing enhanced chromatin accessibility following ERK activation. (A) BMMφ were stimulated with IC plus LPS (10 ng/mL) for 0, 15, 30, 60, and 120 min. Nuclei were isolated at each time point post-stimulation and treated with or without MNase. DNA was purified and analyzed for the presence of sequences corresponding to nucleosomes −2 and −12 by QRT-PCR. The data were graphically plotted as percentage of MNase accessibility relative to the samples of stimulation at zero time point. (B) BMMφwere pre-treated with PD98059 (15 μM) (open bars) or drug vehicle control (solid bars) for 1 hour and then stimulated with IC plus LPS (10 ng/mL) for 60 min. Nuclei were isolated from each group and treated with or without DNase I followed by extraction of genomic DNA. […] The data were expressed as percentage of DNase I accessibility relative to undigested genomic DNA sample and graphically plotted for each treated group. […]
# DNase I sensitivity assayed by Real-time PCR. DNase I accessibility was determined as previously described (Goriely, et al. 2003. Blood 101:4894-4902; Rao, et al. 2001. J. Immunol. 167:4494-4503.) with minor modifications. […]
# MNase accessibility assay was performed on cells grown in 100-mm tissue culture dishes that were stimulated with LPS/IC. […] DNase I accessibility was determined as previously described (Lucas, M., X. Zhang, et al. 2005. J. Immunol. 175:469).
smiles,measurement,setting,value
COc1cccc(-c2cc(=O)c3ccccc3o2)c1N [PD98059],Sp1 binding to the IL-10 promoter (EMSA),[1],no effect
same,reduction of sensitivity to DNase I at nucleosome −2,[2],greater than half
